Data on 1 molecule can be found in ChEMBL document CHEMBL1151830, “Cottoquinazoline A and cotteslosins A and B, metabolites from an Australian marine-derived strain of Aspergillus versicolor” (J Nat Prod, 2009).

Format in all cases: functional, cell-based
Assay [1] is described as follows: Cytotoxicity against human MM418c5 cells.
The next assay deals with T47D. Briefly: Cytotoxicity against human T47D cells.
For another assay, the system named is DU-145. The assay can be described thus: Cytotoxicity against human DU145 cells.

What is called EC50 is the concentration at which the effect is half-maximal. High values mean lower potency in that assay, low ones higher potency in that assay.

Converted amounts (≈) assume the structure as drawn. Non-standard residues stand in square brackets, D forms with d. Residues, ends and D or L forms follow the SMILES beside them. NMeY = CN[C@@H](Cc1ccc(O)cc1)C(=O)O

In the case of `CC[C@H](C)[C@@H]1NC(=O)[C@H](C(C)C)NC(=O)[C@@H]2CCCN2C(=O)[C@H](Cc2ccc(O)cc2)NC(=O)[C@H](Cc2ccc(O)cc2)N(C)C1=O` [COTTESLOSIN A] (cyclo(I[NMeY]YPV)), the EC50 is 66 µg/mL (≈ 102 µM) in assay [1], 94 µg/mL (≈ 145 µM) with T47D and 90 µg/mL (≈ 139 µM) in the assay with DU-145.
